Experimental data as given in patent publication EP0535528A1, “Antibacterial 5-Nitro-1-methyl-imidazolyl-3-terbutyl-2-hydroxy-aryl-carbinols” (EURORESEARCH S.r.L., priority 1991, dated 1993).
Converted amounts (≈) assume the structure as drawn.

Tests used:
[1] = system: Swiss female albino mice; test: Oral and intraperitoneal acute toxicity in mice (LD50, Probits method); format: in vivo; settings: mice
Procedure: 20 Swiss female albino mice are used for this test of the average weight of 20 g (±2), coming from Nossan breeding .
Cages: in Makrolon® with saw dust litter, Number of animals per cage: 5 Acclimation period: 1 week Temperature: 22°C (± 2°C) Humidity : 60%, Diet: pellets for mice produced by Nossan firm, Water ad libitum Fast before the treatment: 16 hours
Oral by gastric route and intraperitoneal.
The substances to be studied: EU11100, EU11102, EU11103, EU11104 are treated with 0.5% carboxymethylcellulose in spring water, for the oral administration, whereas the same substances are intraperitoneally administered in the form of a physiological solution .
For each of the above mentioned substances, a mother suspension is prepared having a concentration in the active ingredient of 250 mg/ml for the oral administration, and analogously a mother suspension is prepared for the intraperitoneal administration having a concentration of the desired active principle of 100 mg/ml.
The following doses are used • a) oral route: 5000 mg/kg • b) intraperitoneal route : 2000 mg/kg
If mortality is observed at the above mentioned doses, other doses are administered in order to obtain a dose-response curve.
5 animals are used for every utilized concentration.
After the administration of the above substances the animals are kept under observation for 14 days , during which the mortality and the behaviour is observed.
LD₅₀ is determined on the base of the cumulative mortality observed in the successive 14 days after the administration by using the Probits method.

[2] = system: Helicobapter pylori; test: Inhibition halos of the bacterial growth (impregnated disks on agar); format: cell-based; settings: for activity against the Helicobapter pylori strains used: 10 strains; for Inhibition halo (mm), Average: average of 10 strains
Procedure: Comparison substance: Metronidazole Solubilization of the substances : All the substances to be studied are dissolved at room temperature in DMSO.
Some commercially available antibiogram disks are so impregnated with the above mentioned compounds that each disk has concentration equal to 10, 1, 0.1, 0.01 µg.
10 strains of Helicobapter pylori are used of recent clinical isolation.
Columbia Blood Agar Base is used, containing 5% of defibrinated horse blood, 2 % of calf serum, 2 vials of Vitox per liter of medium and Vancomicine (10 µg/ml) Trimetoprim lactate(5 µg/ml) and Polimixin B (2.5 U/ml).
0.1 ml of a suspension of the different used strains are uniformly distributed onto Petri plates, containing 20 ml of Columbia Blood Agar base, obtained by taking a sample, by means of a platinum loop, of different colonies from a 48 hours culture, grown in anaerobiosis jars with "Gas Pack", without a catalyst and diluted into a physiological solution.
4 disks per plate, previously impregnated with the substances under examination, are then placed onto the agar layer of each plate.
After 48 hours of anaerobiosis incubation, as above described, the inhibition halos of the bacterial growth, produced by the different activity of the substances inside the agar, are evaluated.

[3] = system: Helicobapter pylori; test: Minimal inhibiting concentration (agar dilution); format: cell-based
Procedure: Substances under examination: EU11100, EU11102, EU11103, EU11104. Comparison substance: Metronidazole Solubilization of the substances: All the substances to be studied are dissolved at room temperature in DMSO. […] 10 strains of Helicobapter pylori are used of recent clinical isolation […] The sowing of the bacteria, prepared as described in the preceding test is carried out by means a "multi-point inoculator". After 48 hours incubation under the condition described in the preceding test, the plates are examined and the Minimal Inhibiting Concentration is evaluated, namely that dose corresponding to growth absence.

## Cc1ccc(C(C)(C)C)c(O)c1C(O)c1ncc([N+](=O)[O-])n1C (centres unmarked) [EU11104, 5-nitro-1-methyl-imidazolyl-3-terbutyl-2-hydroxy-6 methyl-phenyl-carbinol]
[1]; intraperitoneal, 2000 mg/kg
  toxicity when intraperitoneally administered: not toxic
[1]; oral, 5000 mg/kg
  toxicity when orally administered: not toxic
[2]; 0.1 µg/disk
  activity against the Helicobapter pylori strains used: active against 4 out of 10 strains
[2]; 1 µg/disk
  activity against the Helicobapter pylori strains used: active against all the Helicobapter pylori used
  Inhibition halo (mm), Average: 24.9 mm
[2]; disk test
  activity against the Helicobapter pylori strains used: active against all the Helicobapter pylori strains used
[2]; 10 µg/disk
  Inhibition halo (mm), Average: 31.5 mm
[2]; strain 1, 0.01 µg/disk
  Inhibition halo (mm) at the concentration (µg/disk): 0 mm
[2]; strain 1, 1 µg/disk
  Inhibition halo (mm) at the concentration (µg/disk): 27 mm
[2]; strain 1, 10 µg/disk
  Inhibition halo (mm) at the concentration (µg/disk): 33 mm
[2]; strain 2, 0.01 µg/disk
  Inhibition halo (mm) at the concentration (µg/disk): 0 mm
[2]; strain 2, 0.1 µg/disk
  Inhibition halo (mm) at the concentration (µg/disk): 0 mm
[2]; strain 2, 1 µg/disk
  Inhibition halo (mm) at the concentration (µg/disk): 22 mm
[2]; strain 2, 10 µg/disk
  Inhibition halo (mm) at the concentration (µg/disk): 30 mm
[2]; strain 3, 0.01 µg/disk
  Inhibition halo (mm) at the concentration (µg/disk): 0 mm
[2]; strain 3, 0.1 µg/disk
  Inhibition halo (mm) at the concentration (µg/disk): 0 mm
[2]; strain 3, 1 µg/disk
  Inhibition halo (mm) at the concentration (µg/disk): 22 mm
[2]; strain 3, 10 µg/disk
  Inhibition halo (mm) at the concentration (µg/disk): 28 mm
[2]; strain 4, 0.01 µg/disk
  Inhibition halo (mm) at the concentration (µg/disk): 0 mm
[2]; strain 4, 1 µg/disk
  Inhibition halo (mm) at the concentration (µg/disk): 30 mm
[2]; strain 4, 10 µg/disk
  Inhibition halo (mm) at the concentration (µg/disk): 36 mm
[2]; strain 5, 0.01 µg/disk
  Inhibition halo (mm) at the concentration (µg/disk): 0 mm
[2]; strain 5, 0.1 µg/disk
  Inhibition halo (mm) at the concentration (µg/disk): 0 mm
[2]; strain 5, 1 µg/disk
  Inhibition halo (mm) at the concentration (µg/disk): 22 mm
[2]; strain 5, 10 µg/disk
  Inhibition halo (mm) at the concentration (µg/disk): 28 mm
[2]; strain 6, 0.01 µg/disk
  Inhibition halo (mm) at the concentration (µg/disk): 0 mm
[2]; strain 6, 0.1 µg/disk
  Inhibition halo (mm) at the concentration (µg/disk): 14 mm
[2]; strain 6, 1 µg/disk
  Inhibition halo (mm) at the concentration (µg/disk): 29 mm
[2]; strain 6, 10 µg/disk
  Inhibition halo (mm) at the concentration (µg/disk): 35 mm
[2]; strain 7, 0.01 µg/disk
  Inhibition halo (mm) at the concentration (µg/disk): 0 mm
[2]; strain 7, 0.1 µg/disk
  Inhibition halo (mm) at the concentration (µg/disk): 0 mm
[2]; strain 7, 1 µg/disk
  Inhibition halo (mm) at the concentration (µg/disk): 22 mm
[2]; strain 7, 10 µg/disk
  Inhibition halo (mm) at the concentration (µg/disk): 26 mm
[2]; strain 8, 0.01 µg/disk
  Inhibition halo (mm) at the concentration (µg/disk): 0 mm
[2]; strain 8, 0.1 µg/disk
  Inhibition halo (mm) at the concentration (µg/disk): 17 mm
[2]; strain 8, 1 µg/disk
  Inhibition halo (mm) at the concentration (µg/disk): 31 mm
[2]; strain 8, 10 µg/disk
  Inhibition halo (mm) at the concentration (µg/disk): 37 mm
[2]; strain 9, 0.01 µg/disk
  Inhibition halo (mm) at the concentration (µg/disk): 0 mm
[2]; strain 9, 0.1 µg/disk
  Inhibition halo (mm) at the concentration (µg/disk): 0 mm
[2]; strain 9, 1 µg/disk
  Inhibition halo (mm) at the concentration (µg/disk): 21 mm
[2]; strain 9, 10 µg/disk
  Inhibition halo (mm) at the concentration (µg/disk): 30 mm
[2]; strain 10, 0.01 µg/disk
  Inhibition halo (mm) at the concentration (µg/disk): 0 mm
[2]; strain 10, 0.1 µg/disk
  Inhibition halo (mm) at the concentration (µg/disk): 0 mm
[2]; strain 10, 1 µg/disk
  Inhibition halo (mm) at the concentration (µg/disk): 23 mm
[2]; strain 10, 10 µg/disk
  Inhibition halo (mm) at the concentration (µg/disk): 32 mm
[3]; 10 strains
  MIC 50%: 0.03 µg/mL (≈ 0.0939 µM)
  MIC 90%: 0.06 µg/mL (≈ 0.188 µM)
  MIC range: 0.015 to 0.016 µg/mL
[3]; in words, compared with Metronidazole
  MIC values: very low MIC values
[3]; strain 1
  M.I.C.: 0.12 µg/mL
[3]; strain 2
  M.I.C.: 0.03 µg/mL
[3]; strain 3
  M.I.C.: 0.06 µg/mL
[3]; strain 4
  M.I.C.: 0.015 µg/mL
[3]; strain 5
  M.I.C.: 0.03 µg/mL
[3]; strain 6
  M.I.C.: 0.03 µg/mL
[3]; strain 7
  M.I.C.: 0.06 µg/mL
[3]; strain 8
  M.I.C.: 0.06 µg/mL
[3]; strain 9
  M.I.C.: 0.06 µg/mL
[3]; strain 10
  M.I.C.: 0.015 µg/mL
